Measurements published in patent publication US9708368B2, “Linear peptide antibiotics” (priority 2012, dated 2017).
Values after ≈ are worked out from the molar mass of the structure shown. Numbered stars: 1 amine (or outer) side, 2 acyl side, 3 side chain; on linkers, the order of the positions; unused ones are H or OH. Square brackets hold non-standard residues; d marks the D form. Peptide text beside a SMILES is read from it. * marks the point of attachment. ξ: configuration not given here. boroAla((+)-pinanediol) = C[C@H](N*)B1O[C@@H]2C[C@@H]3C[C@@H](C3(C)C)[C@]2(C)O1; Biphenylcarbonyl(4'-Bu) = CCCCc1ccc(-c2ccc(C(=O)*)cc2)cc1; X1 = C[C@H](N*)B1OC2C[C@@H]3C[C@@H](C3(C)C)[C@]2(C)O1; ξ3Amino2oxobutanoyl = CC(N[*:1])C(=O)C(=O)[*:2]; X4 = CCCCc1ccc(-c2c[nH]c(C(=O)*)c2)cc1; NMeY = CN[C@@H](Cc1ccc(O)cc1)C(=O)O; Lauroyl = CCCCCCCCCCCC(=O)*; X6 = C[C@@H](N*)C(=O)C(N)=O; boroAla = C[C@H](N*)B(O)O; Aze = O=C(O)[C@@H]1CCN1; Dab = NCC[C@H](N)C(=O)O; Dap = NC[C@H](N)C(=O)O; βAla = NCCC(=O)O

Key:
[1] = tested on: Escherichia coli strain MC4100 IMP-4213, which harbors an LptD mutation; details: Method B; E. coli MC4100 IMP-4213 (LptD mutation); 35° C., 22 hours
Description: In vitro antimicrobial activity of each compound was determined by measuring minimal inhibitor concentrations (MICs) using the broth micro-dilution technique as approved by the Clinical and Laboratory Standards Institute (CLSI). […] Bacterial inocula were prepared by scraping cells into 1 mL of testing media (cation adjusted Mueller Hinton Broth supplemented with 0.002% v/v Tween-80) and diluting to a final OD600 nm of 0.01.
Test compounds were prepared in DMSO at a concentration of 10 mg/ml. […] Bacterial inocula were added to the two fold serial dilutions of test compounds to a final density of OD OD600 nm of 0.0005 and incubated stationarily at 35° C. for 22 hours, after which the plates were examined visually.

[2] = tested on: methicillin resistant Staphylococcus aureus (MRSA) strain USA300 (NRS384); details: Method B, 35° C., 22 hours
[3] = target: E. coli SPase (Escherichia coli, UniProt P00803); experiment: Biochemical SPase activity assay (fluorogenic peptide substrate), E. coli enzyme
Description: Reactions were initiated by the addition of substrate to a final concentration of 20 μM. Reaction progress was monitored by measuring the increase in fluorescence signal (excitation at 314 nm, emission at 416 nm) using a SpectraMax M2 fluorescence microplate reader. […] Three-folder serial dilutions of test compounds, starting at 10 μM, were prepared in enzyme mix solution and incubated at room temperature for 10 minutes. Following this incubation, fluorogenic substrate was added to a final concentration of 20 μM and the increase in fluorescence, corresponding to substrate cleavage, was monitored continuously at room temperature for 1 hour. Initial reaction rates were calculated based on the rate of increase in fluorescence during the reaction. Reaction rates were plotted as a function of compound concentration, and IC50 values are determined nonlinear regression analysis (SoftMaxPro 5.4, Molecular Devices™) of the sigmoidal dose-response curve.

[4] = target: S. aureus SPase (Staphylococcus aureus, UniProt P0A070); experiment: biochemical
Chain of S. aureus SPase (P0A070 whole entry): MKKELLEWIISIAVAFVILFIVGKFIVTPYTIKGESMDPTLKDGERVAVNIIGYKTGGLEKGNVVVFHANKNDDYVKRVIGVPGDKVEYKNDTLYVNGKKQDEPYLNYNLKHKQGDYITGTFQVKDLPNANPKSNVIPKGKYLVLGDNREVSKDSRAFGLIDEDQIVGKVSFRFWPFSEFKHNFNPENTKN

Chain of E. coli SPase (P00803 whole entry): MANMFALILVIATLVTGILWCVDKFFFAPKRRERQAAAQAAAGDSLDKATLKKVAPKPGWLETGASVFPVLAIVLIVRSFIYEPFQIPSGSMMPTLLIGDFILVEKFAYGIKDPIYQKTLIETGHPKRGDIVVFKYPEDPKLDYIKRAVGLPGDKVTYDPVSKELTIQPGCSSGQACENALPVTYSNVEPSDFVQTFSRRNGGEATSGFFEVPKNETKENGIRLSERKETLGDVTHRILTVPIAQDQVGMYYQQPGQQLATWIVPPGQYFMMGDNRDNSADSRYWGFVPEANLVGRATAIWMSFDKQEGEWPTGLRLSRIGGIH

Structure (SMILES)	MIC (μg/mL) E. coli [1] [µg/mL]	MIC (μg/mL) S. aureus [2] [µg/mL]	IC50 [3] [nM]	IC50 [4] [nM]
CCCCc1ccc(-c2ccc(C(=O)N[C@@H](CCN)C(=O)N[C@H](C(=O)N[C@@H](C)C(=O)N[C@@H](CCCCN)C(=O)N[C@@H](C)B3O[C@@H]4C[C@@H]5C[C@@H](C5(C)C)[C@]4(C)O3)[C@@H](C)O)cc2)cc1 [Compound 187] ({Biphenylcarbonyl(4'-Bu)}-[Dab]TAK-{boroAla((+)-pinanediol)})	2.8 (≈ 3.26 µM)	8 (≈ 9.3 µM)	170	2100
CCCCc1ccc(-c2ccc(C(=O)N[C@@H](CCCCN)C(=O)N[C@H](C(=O)N[C@@H](C)C(=O)N[C@@H](CCN)C(=O)N[C@@H](C)B3O[C@@H]4C[C@@H]5C[C@@H](C5(C)C)[C@]4(C)O3)[C@@H](C)O)cc2)cc1 [Compound 140] ({Biphenylcarbonyl(4'-Bu)}-KTA[Dab]-{boroAla((+)-pinanediol)})	8 (≈ 9.3 µM)	1 (≈ 1.16 µM)	50	52
CCCCCCCCCCCC(=O)NCCC(=O)N[C@@H](CCCCN)C(=O)N[C@H](C(=O)N[C@@H](C)C(=O)N[C@@H](CC(N)=O)C(=O)N[C@@H](C)B1OC2C[C@@H]3C[C@@H](C3(C)C)[C@]2(C)O1)[C@@H](C)O (stereo partly shown) [Compound 202] ({Lauroyl-βAla}-KTAN-X1)	23 (≈ 25.8 µM)	1.1 (≈ 1.23 µM)	7.1	3.5
CCCCc1ccc(-c2ccc(C(=O)N[C@@H](CCCCN)C(=O)N[C@H](C(=O)N[C@@H](C)C(=O)N[C@@H](CC(N)=O)C(=O)N[C@@H](C)B(O)O)[C@@H](C)O)cc2)cc1 [Compound 131] ({Biphenylcarbonyl(4'-Bu)}-KTAN-boroAla)	0.44 (≈ 0.595 µM)	0.45 (≈ 0.608 µM)	19	98
CCCCc1ccc(-c2ccc(C(=O)N[C@@H](Cc3c[nH]c4ccccc34)C(=O)N[C@H](C(=O)N[C@@H](C)C(=O)N[C@@H](CCCCN)C(=O)N[C@@H](C)B3OC4C[C@@H]5C[C@@H](C5(C)C)[C@]4(C)O3)[C@@H](C)O)cc2)cc1 (stereo partly shown) [Compound 138] ({Biphenylcarbonyl(4'-Bu)}-WTAK-X1)	>64	5 (≈ 5.29 µM)	1000	1100
CCCCc1ccc(-c2c[nH]c(C(=O)N[C@@H](CCN)C(=O)N[C@H](C(=O)N[C@@H](C)C(=O)N[C@@H](CCCCN)C(=O)N[C@@H](C)B3O[C@@H]4C[C@@H]5C[C@@H](C5(C)C)[C@]4(C)O3)[C@@H](C)O)c2)cc1 [Compound 247] (X4-[Dab]TAK-{boroAla((+)-pinanediol)})	0.5 (≈ 0.589 µM)	0.5 (≈ 0.589 µM)	17	110
CCCCc1ccc(-c2ccc(C(=O)N[C@@H](CCN)C(=O)N3CC[C@H]3C(=O)N[C@@H](C)C(=O)N[C@@H](CCCCN)C(=O)N[C@@H](C)B3O[C@@H]4C[C@@H]5C[C@@H](C5(C)C)[C@]4(C)O3)cc2)cc1 [Compound 183] ({Biphenylcarbonyl(4'-Bu)}-[Dab][Aze]AK-{boroAla((+)-pinanediol)})	1 (≈ 1.19 µM)	1 (≈ 1.19 µM)	20	610
CCCCc1ccc(-c2ccc(C(=O)N[C@@H](CCCCN)C(=O)N[C@@H](CCCCN)C(=O)N[C@@H](C)C(=O)N[C@@H](CC(C)C)C(=O)N[C@H](C)C(=O)C(N)=O)cc2)cc1 [Compound 254] ({Biphenylcarbonyl(4'-Bu)}-KKAL-X6)	11 (≈ 13.9 µM)	8 (≈ 10.1 µM)	1200	660
CCCCc1ccc(-c2ccc(C(=O)N[C@@H](CCCCN)C(=O)N[C@@H](Cc3c[nH]cn3)C(=O)N[C@@H](C)C(=O)N[C@@H](CC(N)=O)C(=O)N[C@@H](C)B(O)O)cc2)cc1 [Compound 136] ({Biphenylcarbonyl(4'-Bu)}-KHAN-boroAla)	1 (≈ 1.29 µM)	1.4 (≈ 1.8 µM)	14	39
CCCCc1ccc(-c2ccc(CNCCC[C@H](NC(C)=O)C(=O)N[C@H](C(=O)N[C@@H](C)C(=O)N[C@@H](CCCCN)C(=O)N[C@@H](C)B3OC4C[C@@H]5C[C@@H](C5(C)C)[C@]4(C)O3)[C@@H](C)O)cc2)cc1 (stereo partly shown) [Compound 275]	32 (≈ 35.5 µM)	1 (≈ 1.11 µM)	1500	110
CCCCc1ccc(-c2ccc(C(=O)NCCC(=O)N[C@@H](CCCCN)C(=O)N3CCC[C@H]3C(=O)N[C@@H](C)C(=O)N[C@@H](CC(N)=O)C(=O)N[C@@H](C)B(O)O)cc2)cc1 [Compound 220] ({Biphenylcarbonyl(4'-Bu)-βAla}-KPAN-boroAla)	4 (≈ 4.96 µM)	0.5 (≈ 0.62 µM)	36	7
CCCCc1ccc(-c2ccc(C(=O)N3CCC(C(=O)N[C@H](C(=O)N[C@@H](C)C(=O)N[C@@H](CCCCN)C(=O)N[C@@H](C)B4O[C@@H]5C[C@@H]6C[C@@H](C6(C)C)[C@]5(C)O4)[C@@H](C)O)CC3)cc2)cc1 [Compound 272]	32 (≈ 36.7 µM)	0.71 (≈ 0.815 µM)	1300	50
CCCCc1ccc(-c2ccc(C(=O)N[C@@H](CCCCN)C(=O)NC(C(=O)N[C@@H](C)C(=O)N[C@@H](CCCCN)C(=O)N[C@@H](C)B(O)O)c3ccc(OC)cc3)cc2)cc1 (stereo partly shown) [Compound 166]	0.5 (≈ 0.613 µM)	0.63 (≈ 0.772 µM)	36	350
CCCCc1ccc(-c2ccc(C(=O)NCCC(=O)N[C@@H](CCCCN)C(=O)N3CCC[C@H]3C(=O)N[C@@H](C)C(=O)N[C@@H](CC(N)=O)C(=O)N[C@@H](C)B3OC4C[C@@H]5C[C@@H](C5(C)C)[C@]4(C)O3)cc2)cc1 (stereo partly shown) [Compound 208] ({Biphenylcarbonyl(4'-Bu)-βAla}-KPAN-X1)	4 (≈ 4.25 µM)	0.31 (≈ 0.329 µM)	20	5.7
CCCCc1ccc(-c2ccc(C(=O)N[C@@H](CCCCN)C(=O)N[C@@H](CCCCN)C(=O)N[C@@H](C)C(=O)N[C@@H](CC(N)=O)C(=O)N[C@@H](C)B3O[C@@H]4C[C@@H]5C[C@@H](C5(C)C)[C@]4(C)O3)cc2)cc1 [Compound 134] ({Biphenylcarbonyl(4'-Bu)}-KKAN-{boroAla((+)-pinanediol)})	1.4 (≈ 1.55 µM)	0.87 (≈ 0.966 µM)	8.7	120
CCCCc1ccc(-c2ccc(C(=O)NCCC(=O)N[C@@H](CCCCN)C(=O)N[C@H](C(=O)N[C@@H](C)C(=O)N[C@@H](CC(N)=O)C(=O)NC(C)C(=O)C(=O)NC)[C@@H](C)O)cc2)cc1 (stereo partly shown) [Compound 252] ({Biphenylcarbonyl(4'-Bu)-βAla}-KTAN[ξ3Amino2oxobutanoyl]-NHMe)	>64	5 (≈ 5.87 µM)	3000	8.7
CCCCc1ccc(-c2ccc(C(=O)N[C@@H](CCCCN)C(=O)N[C@@H](CN)C(=O)N[C@@H](C)C(=O)N[C@@H](CC(C)C)C(=O)N[C@@H](C)B(O)O)cc2)cc1 [Compound 165] ({Biphenylcarbonyl(4'-Bu)}-K[Dap]AL-boroAla)	0.63 (≈ 0.87 µM)	0.63 (≈ 0.87 µM)	120	410
CCCCc1ccc(-c2ccc(C(=O)N[C@@H](CCC(=O)O)C(=O)N[C@H](C(=O)N[C@@H](C)C(=O)N[C@@H](CCCCN)C(=O)N[C@@H](C)B(O)O)[C@@H](C)O)cc2)cc1 [Compound 163] ({Biphenylcarbonyl(4'-Bu)}-ETAK-boroAla)	>64	4 (≈ 5.3 µM)	240	310
CCCCc1ccc(-c2ccc(OC(=O)N[C@@H](CCCCN)C(=O)N[C@H](C(=O)N[C@@H](C)C(=O)N[C@@H](CC(N)=O)C(=O)N[C@@H](C)B3OC4C[C@@H]5C[C@@H](C5(C)C)[C@]4(C)O3)[C@@H](C)O)cc2)cc1 (stereo partly shown) [Compound 262]	8 (≈ 8.99 µM)	2.8 (≈ 3.15 µM)	37	15
CCCCc1ccc(-c2ccc(C(=O)N[C@@H](CCN)C(=O)N[C@H](C(=O)N[C@@H](C)C(=O)N[C@@H](CCCCN)C(=O)N[C@@H](C)B3OC4C[C@@H]5C[C@@H](C5(C)C)[C@]4(C)O3)[C@@H](C)O)nc2)cc1 (stereo partly shown) [Compound 233]	1 (≈ 1.16 µM)	0.5 (≈ 0.581 µM)	29	220
CCCCc1ccc(-c2ccc(CNCCCC(=O)N[C@H](C(=O)N[C@@H](C)C(=O)N[C@@H](CCCCN)C(=O)N[C@@H](C)B3O[C@@H]4C[C@@H]5C[C@@H](C5(C)C)[C@]4(C)O3)[C@@H](C)O)cc2)cc1 [Compound 271]	11 (≈ 13.2 µM)	0.5 (≈ 0.602 µM)	200	16
CCCCc1ccc(-c2ccc(C(=O)N[C@H](CO)C(=O)N[C@H](C)C(=O)NCC(=O)N(C)[C@@H](Cc3ccc(O)cc3)C(=O)N[C@@H](C)C(=O)N[C@@H](CC(N)=O)C(=O)N[C@@H](C)B3OC4C[C@@H]5C[C@@H](C5(C)C)[C@]4(C)O3)cc2)cc1 (stereo partly shown) [Compound 227] ({Biphenylcarbonyl(4'-Bu)}-[dS][dA]G[NMeY]AN-X1)	13 (≈ 12.5 µM)	8 (≈ 7.71 µM)	550	850
